# Laboratory results taken from US6284726A, “Inhibition of angiogenesis by peptide analogs of high molecular weight kininogen domain 5” (Temple University - Of The Commonwealth System of Higher …, priority 2000, dated 2001).
# pIC50: −log10 of the molar value.
# Tests used:
# [1] = tested on: HUVECs; assay: Transwell migration of endothelial cells to vitronectin; type: cell-based, human; details: 0.27 μM; four hours at 37° C.
# Method: The lower side of 8 μm pore transwell inserts (Costar, Inc.) were coated with 2 μg/ml of vitronectin for one hour and blocked with 2% bovine serum albumin in phosphate buffered saline for one hour. The inserts were then placed into 24 well culture dishes containing 500 μl migration buffer in the lower chamber. Twenty-five thousand HUVECs in 50 μl of migration buffer were added to the upper chamber of duplicate inserts containing 50 μl of a solution of 50 μg/ml GST-SEQ ID NO. 10 peptide in migration buffer (Herpes buffered M199 medium containing 1% BSA, […], […] and 0.2 μM MnCl2) or migration buffer alone. Cells were allowed to migrate from the upper to the lower chamber for four hours at 37° C. Nonmigratory cells were removed from the upper surface by wiping the upper side with an absorbent tip. Cells which migrated to the lower side of the transwell insert were then fixed for 15 minutes with 3.7% paraformaldehyde in phosphate buffered saline and stained with a 2% crystal violet solution. After extensive water washing to remove excess crystal violet, the number of cells which had migrated were counted in three representative high power (200X) fields per inset.
# [2] = tested on: chorioallantoic membrane (CAM) of embryonated chicken eggs; assay: In ovo chick chorioallantoic membrane (CAM) angiogenesis assay; type: in vivo; details: for inhibition of bFGF-stimulated angiogenesis (blood vessel branch points): bFGF-saturated filter disc on CAM, peptide 0-25 μg in 25 μl saline, 0.27 μM, applied 24 hours later
# Description: New vessels, quantified by blood vessel branching, occurred in response to bFGF, VEGF, or a combination of both. Accordingly, ten day old embryonated chicken eggs were candled to illuminate blood vessels under the shell. An area with a minimum of small blood vessel was identified. The chorioallantoic membrane (CAM) was dropped away from the egg shell in this area by grinding a small hole in the mineralized shell and applying pressure to the underlying inner shell membrane. This caused an air pocket to shift from the wide end of the egg to the identified area and forced a circular region of the CAM approximately 2 cm in diameter to drop away from the shell. A window was cut in the egg shell. A cortisone acetate pre-treated filter disc 5 mm in diameter that was saturated in 1 μg/mi bFGF, a combination of bFGF and VEGF, or saline and was placed on the CAM. The window in the shell was sealed with adhesive tape and the egg was incubated for four days. Peptide GST-SEQ ID NO:10 (0-25 μg in 25 μI saline; 0.27 μM) was applied to the saturated filter 24 hours later and was applied to the stimulated CAM. The CAM was then harvested on the fourth day of stimulation. Data were evaluated in terms of average number of blood vessel branch points per treatment group as well as percent of control using a video camera attached to a personal computer. Under the conditions of the assay, peptide GST-SEQ ID NO:10 inhibited bFGF-stimulated angiogenesis by 97% and bFGF/VEGF-stimulated angiogenesis by 94%. There was no inhibition of bFGF-stimulated angiogenesis by GST alone (<10% inhibition).
# [3] = tested on: HUVEC cells; assay: CyQUANT proliferation assay of bFGF-stimulated HUVEC; type: cell-based, human; details: 10 ng/ml bFGF; for Proliferation % Inhibition: 48 hours
# Method: Cell proliferation was determined by using CyQUANT cell proliferation assay kit from Molecular Probes (catalog #C-7026).
# HUVEC cells (50,000/well) in a 96 well microtiter plate were stimulated with 10 ng/ml bFGF in serum-free, M199 growth medium with or without HK peptide for 48 hours at 37° C. in a CO2 incubator. Cells were washed with serum-free medium and frozen at -40° C. Frozen cells were thawed and lysed with a lysis buffer containing the CyQUANT GR dye. Fluorescence was measured using a Cytofluor II Fluorescence Multi-well plate reader with excitation 485 nm and emission with 530 nm.
# The percent inhibition of proliferation at a specific peptide concentration was determined for some peptides. For other peptides, an IC50 was calculated from a curve plotting inhibitor concentration versus percent inhibition over a inhibition range of ten to ninety percent inhibition.
substance,measurement,setting,value
GST-Lys(420)-Ser(513) [GST-SEQ ID NO: 10],inhibition of HUVEC migration to vitronectin,[1],100%
same,"inhibition of bFGF-induced angiogenesis, as seen in FIG. 1D (in words)","[2]; bFGF plus GST fusion peptide, CAM",substantial inhibition
same,inhibition of bFGF-stimulated angiogenesis (blood vessel branch points),[2]; harvested on fourth day,97%
same,inhibition of bFGF/VEGF-stimulated angiogenesis (blood vessel branch points),"[2]; filter disc with combination of bFGF and VEGF on CAM, peptide 0.27 μM applied 24 hours later, harvested on fourth day",94%
same,pIC50,"[3]; serum-free M199, 48 hours, read-out: IC50 (inhibition of endothelial cell proliferation)",> 7.52
same,Proliferation % Inhibition,[3]; peptide conc. 0.27 μM,100%
GST-Lys(420)-Asp(474) [GST-SEQ ID NO: 5],Proliferation % Inhibition,[3]; peptide conc. 0.36 μM,94%
GST-His(441)-Ser(626) [GST-SEQ ID NO: 8],Proliferation % Inhibition,[3]; peptide conc. 0.39 μM,100%
"glutathione-S-transferase [GST, reference compound]",inhibition of bFGF-stimulated angiogenesis (blood vessel branch points),[2]; harvested on fourth day,< 10%
GST-Glu(448)-Ser(626) [GST-SEQ ID NO: 12],Proliferation % Inhibition,[3]; peptide conc. 0.35 μM,65%
